Measured values taken from ChEMBL document CHEMBL1201862, “PubChem BioAssay data set” (2004).
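Briefly, cells in 96-well plates were exposed to five compound concentrations for 48 h, and endpoints were estimated by linear interpolation. The concentration for 50% growth inhibition is given as GI50.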 Activity calls are given as the source filed them. No stated cut-off is given here; in the data, active = GI50 up to about 1.1 µM and inactive = higher.

Experiments:
Experiment in all cases: inhibition of tumour cell growth, NCI panel, 48 h
786-0 = system: 786-0
A498 = system: A498
A549 = system: A549
ACHN = system: ACHN
BT-549 = system: BT-549
CAKI-1 = system: CAKI-1
CCRF-CEM = system: CCRF-CEM
COLO 205 = system: COLO 205
DU-145 = system: DU-145
EKVX = system: EKVX
HCC 2998 = system: HCC 2998
HCT-116 = system: HCT-116
HCT-15 = system: HCT-15
HL-60 = system: HL-60
HOP-62 = system: HOP-62
HOP-92 = system: HOP-92
HT-29 = system: HT-29
Hs-578T = system: Hs-578T
IGROV-1 = system: IGROV-1
K562 = system: K562
LOX IMVI = system: LOX IMVI
M14 = system: M14
MCF7 = system: MCF7
MDA-MB-231 = system: MDA-MB-231
MDA-MB-435 = system: MDA-MB-435
MDA-N = system: MDA-N
MOLT-4 = system: MOLT-4
Malme-3M = system: Malme-3M
NCI-H226 = system: NCI-H226
NCI-H23 = system: NCI-H23
NCI-H460 = system: NCI-H460
NCI-H522 = system: NCI-H522
OVCAR-3 = system: OVCAR-3
OVCAR-4 = system: OVCAR-4
OVCAR-5 = system: OVCAR-5
PC-3 = system: PC-3
RPMI-8226 = system: RPMI-8226
RXF 393 = system: RXF 393
SF-268 = system: SF-268
SF-295 = system: SF-295
SF-539 = system: SF-539
SK-MEL-28 = system: SK-MEL-28
SK-MEL-2 = system: SK-MEL-2
SK-MEL-5 = system: SK-MEL-5
SK-OV-3 = system: SK-OV-3
SN12C = system: SN12C
SNB-19 = system: SNB-19
SR = system: SR
SW-620 = system: SW-620
T47D = system: T47D
TK-10 = system: TK-10
U-251 = system: U-251
UACC-257 = system: UACC-257
UACC-62 = system: UACC-62
UO-31 = system: UO-31
KM12 = system: KM12
NCI/ADR-RES = system: NCI/ADR-RES
OVCAR-8 = system: OVCAR-8
SNB-75 = system: SNB-75

Measured: GI50

COC(=O)C1C(C(=O)OC)C2(OC(c3ccc(Cl)cc3)=CC2=O)C12OC(c1ccc(Cl)cc1)=CC2=O (stereo not drawn)
16.4 µM: HCT-15
inactive: 786-0 16.6 µM | A498 29.9 µM | A549 34.1 µM | ACHN 19.9 µM | BT-549 16.4 µM | CAKI-1 22 µM | CCRF-CEM 3.01 µM | COLO 205 16.7 µM | DU-145 29.9 µM | EKVX 22.3 µM | HCC 2998 18.3 µM | HCT-116 14.9 µM | HL-60 2.81 µM | HOP-62 > 10 µM | HOP-92 18.6 µM | HT-29 16.7 µM | Hs-578T 30.5 µM | IGROV-1 17 µM | K562 19.3 µM | LOX IMVI 23.1 µM | M14 19.1 µM | MCF7 18 µM | MDA-MB-231 26.4 µM | MDA-MB-435 22.5 µM | MDA-N 18.3 µM | MOLT-4 4.45 µM | Malme-3M 17.3 µM | NCI-H226 28.4 µM | NCI-H23 20.8 µM | NCI-H460 19.8 µM | NCI-H522 18.4 µM | OVCAR-3 19.2 µM | OVCAR-4 19.9 µM | OVCAR-5 24.3 µM | PC-3 21.8 µM | RPMI-8226 7.21 µM | RXF 393 17.5 µM | SF-268 24.5 µM | SF-295 22.6 µM | SF-539 18.3 µM | SK-MEL-28 36.8 µM | SK-MEL-2 24 µM | SK-MEL-5 19.3 µM | SK-OV-3 71.1 µM | SN12C 20.5 µM | SNB-19 43.2 µM | SR 1.96 µM | SW-620 32.7 µM | T47D 14.8 µM | TK-10 22.6 µM | U-251 32.1 µM | UACC-257 22.9 µM | UACC-62 14.6 µM | UO-31 16.6 µM

O=c1oc2ccc3ccccc3c2cc1-c1nc2ccccc2s1
> 100 µM: HCT-15
inactive: 786-0 > 100 µM | A498 > 100 µM | A549 > 23.1 µM | ACHN > 100 µM | BT-549 > 100 µM | CAKI-1 > 100 µM | CCRF-CEM > 100 µM | COLO 205 > 100 µM | DU-145 > 100 µM | EKVX > 100 µM | HCC 2998 > 100 µM | HCT-116 > 100 µM | HL-60 > 100 µM | HOP-62 > 100 µM | HOP-92 > 100 µM | HT-29 > 100 µM | Hs-578T > 100 µM | IGROV-1 > 100 µM | K562 > 20.6 µM | KM12 > 100 µM | LOX IMVI > 100 µM | M14 > 100 µM | MDA-MB-231 > 100 µM | MDA-MB-435 > 100 µM | MDA-N > 100 µM | Malme-3M > 100 µM | NCI-H226 > 100 µM | NCI-H23 > 100 µM | NCI-H460 > 100 µM | NCI-H522 > 100 µM | NCI/ADR-RES > 100 µM | OVCAR-3 > 100 µM | OVCAR-4 > 100 µM | OVCAR-5 > 100 µM | OVCAR-8 > 100 µM | PC-3 > 100 µM | RXF 393 > 100 µM | SF-268 > 100 µM | SF-295 > 100 µM | SF-539 > 100 µM | SK-MEL-28 > 100 µM | SK-MEL-2 > 100 µM | SK-MEL-5 > 100 µM | SK-OV-3 > 100 µM | SN12C > 100 µM | SNB-75 > 100 µM | SW-620 > 100 µM | T47D > 66.7 µM | TK-10 > 100 µM | U-251 > 100 µM | UACC-257 > 100 µM | UACC-62 > 100 µM | UO-31 > 100 µM

OC1(c2ccc(-c3ccccc3)cc2)c2ccccc2C2=NCCN21 (stereo not drawn)
inactive: 786-0 16 µM | A498 31.6 µM | A549 84.9 µM | ACHN 20.6 µM | BT-549 > 100 µM | CAKI-1 50.6 µM | CCRF-CEM 39.9 µM | COLO 205 21.4 µM | DU-145 > 100 µM | HCC 2998 19.1 µM | HCT-116 30.3 µM | HL-60 33.7 µM | HOP-62 16.6 µM | HOP-92 50.4 µM | HT-29 21.4 µM | Hs-578T 22.4 µM | K562 70.5 µM | KM12 22.9 µM | LOX IMVI 34.8 µM | MDA-MB-231 56.1 µM | MDA-MB-435 32.2 µM | MDA-N > 100 µM | MOLT-4 27.1 µM | NCI-H226 18.3 µM | NCI-H23 20.1 µM | NCI-H460 45.8 µM | NCI/ADR-RES 29.2 µM | OVCAR-3 19 µM | OVCAR-4 56.8 µM | PC-3 11.9 µM | RPMI-8226 29 µM | SF-268 29.6 µM | SF-295 52.2 µM | SK-MEL-28 21.7 µM | SK-MEL-2 3.61 µM | SK-MEL-5 19.8 µM | SK-OV-3 86.3 µM | SN12C > 100 µM | SNB-19 15.4 µM | SNB-75 19.3 µM | SR 33.8 µM | SW-620 45.4 µM | T47D 86.9 µM | TK-10 > 100 µM | U-251 37.7 µM | UACC-257 36.1 µM | UACC-62 20.4 µM | UO-31 30.6 µM
39.9 µM: HCT-15

CC(=O)OC/C=C(\C)CCC(Br)C(C)(C)Br (stereo not drawn)
> 10 µM: HCT-15
active: UO-31 0.001 µM
inactive: 786-0 > 10 µM | A498 > 10 µM | A549 > 10 µM | ACHN > 10 µM | BT-549 > 10 µM | CAKI-1 > 10 µM | CCRF-CEM > 10 µM | COLO 205 > 10 µM | DU-145 > 10 µM | EKVX > 10 µM | HCC 2998 > 10 µM | HCT-116 > 10 µM | HL-60 > 10 µM | HOP-62 > 10 µM | HT-29 > 10 µM | Hs-578T > 10 µM | IGROV-1 > 10 µM | K562 > 10 µM | KM12 > 10 µM | LOX IMVI > 10 µM | M14 > 10 µM | MCF7 > 10 µM | MDA-MB-231 > 10 µM | MDA-MB-435 > 10 µM | MDA-N > 10 µM | MOLT-4 > 10 µM | Malme-3M > 10 µM | NCI-H226 > 10 µM | NCI-H23 > 10 µM | NCI-H460 > 10 µM | NCI-H522 > 10 µM | NCI/ADR-RES > 10 µM | OVCAR-3 > 10 µM | OVCAR-4 > 10 µM | OVCAR-5 > 10 µM | OVCAR-8 > 10 µM | PC-3 > 10 µM | RPMI-8226 > 10 µM | RXF 393 > 10 µM | SF-268 > 10 µM | SF-295 > 10 µM | SF-539 > 10 µM | SK-MEL-28 > 10 µM | SK-MEL-2 > 10 µM | SK-MEL-5 > 10 µM | SK-OV-3 > 10 µM | SN12C > 10 µM | SNB-19 > 10 µM | SNB-75 > 10 µM | SW-620 > 10 µM | T47D > 10 µM | TK-10 > 10 µM | U-251 > 10 µM | UACC-257 > 10 µM | UACC-62 > 10 µM

CC(C)=NN/C(=N\c1ccc(Cl)cc1)NS(=O)(=O)c1ccc(C)cc1
inactive: 786-0 62.4 µM | A498 33 µM | A549 62.4 µM | ACHN 40.5 µM | BT-549 > 100 µM | CAKI-1 62.2 µM | CCRF-CEM > 100 µM | COLO 205 > 100 µM | DU-145 47.9 µM | EKVX 52.6 µM | HCT-116 76.4 µM | HL-60 97.5 µM | HOP-62 69 µM | HOP-92 38.8 µM | HT-29 > 100 µM | Hs-578T > 100 µM | IGROV-1 77.4 µM | K562 69.3 µM | KM12 85.7 µM | LOX IMVI 87.7 µM | M14 > 100 µM | MCF7 58.5 µM | MDA-MB-231 73.1 µM | MDA-MB-435 92.9 µM | MDA-N > 100 µM | MOLT-4 41.5 µM | Malme-3M 61.2 µM | NCI-H226 > 100 µM | NCI-H23 > 100 µM | NCI-H460 57.8 µM | NCI-H522 56.8 µM | NCI/ADR-RES 69.3 µM | OVCAR-3 31.1 µM | OVCAR-4 51.1 µM | OVCAR-5 > 100 µM | OVCAR-8 > 100 µM | PC-3 41.2 µM | RPMI-8226 44.2 µM | SF-268 60 µM | SF-295 35.2 µM | SK-MEL-28 85.5 µM | SK-MEL-2 73.1 µM | SK-MEL-5 60.3 µM | SN12C 84.5 µM | SNB-19 > 100 µM | SW-620 > 100 µM | T47D 23.8 µM | TK-10 50.8 µM | U-251 96.8 µM | UACC-257 35.2 µM | UACC-62 49 µM | UO-31 > 100 µM
> 100 µM: HCT-15
